Measured values from patent publication US20260021154A1, “HERBAL ANTI-INFAMMATORY COMPOSITION” (CIRA HERBALS LLP, priority 2022, published 2026).

Test system: milk-induced eosinophilia and leukocytosis
Assay: Milk-induced eosinophilia and leukocytosis in mice
Format: in vivo, Swiss albino mice
Settings: for Eosinophil (mean ± SD), post-treatment / Total leucocyte count (mean ± SD), post-treatment: 24 h after dosing, p.o. 1 h before boiled and cooled milk 4 ml/kg s.c., polyherbal extract 307 mg/kg, levocetirizine 0.9 mg/kg, fexofenadine 21 mg/kg; for Eosinophil (mean ± SD), pre-treatment / Total leucocyte count (mean ± SD), pre-treatment: before treatment, 6 mice/group
Experimental: The composition of the present invention was assessed using milk-induced cosinophilia and leukocytosis animal model to evaluate the anti-inflammatory activity.
Injection of milk into mice induces allergy response which in turn causes leucocytosis. Leukocytosis is the condition of having a high number of leukocytes in the blood. Leukocytes are white blood cells. Leukocytosis may be a temporary response to an allergy, infection or an injury as the body is healing naturally, or it can be a sign of disease.
Study was conducted to check the effect of extracts on milk-induced eosinophilia and leukocytosis in mice, by determining the count of eosinophils and leukocytes. For this model, 54 Swiss albino mice weighing in the range of 20-25 gm were used and divided in nine groups (6 mice/group). The eosinophils and leukocyte count was checked before and after treatment i.e. 24 hours after dosing with polyherbal formulation and standard drugs.
All the animals were maintained in the animal house under standard conditions: temperature (24±1° C.), relative humidity (45-55%), light (12 h) and dark (12 h) cycle, and were allowed free access to food and water ad libitum. After one-week acclimatization in the animal house, the animals were used for the experiments.
Polyherbal extract containing Nigella sativa 88 mg/kg, Tinospora cordifolia 158 mg/kg, Petasites hybridus 26 mg/kg and Perilla frutescens 35 mg/kg was suspended in carboxy methyl cellulose. The suspension thus contained 307 mg/kg of the extract.
Similarly, standard drugs levocetirizine and fexofenadine were prepared as per requirement
The treatment of polyherbal extract and standard drug formulation were given orally 1 hour prior to injection of boiled and cooled milk. After 24 hours, blood samples were collected from retro orbital plexus, under ketamine xylazine anesthesia. Total eosinophil and differential leukocyte count per cu·mm was anlysed using hematology analyzer before and after treatment.

Row | Compound | Eosinophil (mean ± SD), post-treatment | Total leucocyte count (mean ± SD), post-treatment | Eosinophil (mean ± SD), pre-treatment | Total leucocyte count (mean ± SD), pre-treatment
1 | O=C(O)COCCN1CCN([C@H](c2ccccc2)c2ccc(Cl)cc2)CC1 [Levocetirizine] | 0.167 ± 0.082 10^3/μL | 6.950 ± 1.089 10^3/μL | 0.18 ± 0.08 10^3/μL | 6.95 ± 1.57 10^3/μL
2 | CC(C)(C(=O)O)c1ccc(C(O)CCCN2CCC(C(O)(c3ccccc3)c3ccccc3)CC2)cc1 (centres unmarked) [Fexofenadine] | 0.183 ± 0.075 10^3/μL | 6.917 ± 0.436 10^3/μL | 0.17 ± 0.08 10^3/μL | 7.87 ± 0.72 10^3/μL
